Data reported in patent US12156862B2, “Medicaments for the treatment of vasoconstriction related diseases or disorders” (Sulfateq B.V., priority 2017, dated 2024).
Marks after values point to notes of the source that are not given here.

Tests used:
EGFR transactivation = assay: Phenylephrine-induced constriction of porcine intrarenal arteries pre-treated with EGFR blocker AG1478; conditions: AG1478 20 μM and SUL-150 50 μM
Protocol: Inhibition of EGF receptor (EGFR) transactivation is known to inhibit α1 adrenoceptor mediated constrictions (REF). Therefore, we investigated the role of EGFR transactivation in SUL-150 mediated inhibition of vasoconstriction. For this, porcine intrarenal arteries were pre-treated with the EGFR blocker AG1478 (FIG. 3). First, an initial measurement was performed to determine the dose of AG1478 which would cause maximal inhibition of vascular constriction induced by PE (FIG. 3A). Subsequently, isolated arteries were treated with AG1478 (20 μM) and SUL-150 (50 μM) and studied for PE-induced vasoconstriction.

[1] = tested on: porcine intrarenal arteries (histamine induced constrictions); assay: Histamine-induced constriction of isolated porcine intrarenal arteries; conditions: for logEC50 of histamine-induced constriction responses: Porcine renalis
Protocol: (§1) Porcine kidneys were obtained from a local slaughterhouse (Kroon Vlees, Gotenburgweg 30, 9723 TM Groningen. The Netherlands) and transported on ice in normal physiological Krebs buffer containing 120 mM NaCl, 6 mM KCl, 2.5 mM CaCl2×2H2O, 1.2 mM MgCl2×6H2O, 1.2 mM NaH2PO4×H2O, 25 mM NaHCO3 and 11.4 mM D-(+)-Glucose monohydrate (all ingredients were purchased from Merck) in ultrapure water.
(§2) The renal artery tree was dissected from the kidney, cleaned of surrounding connective tissue and cut into equally-sized ring segments (2 mm in length). In some rings, endothelium denudation was performed by gentle rubbing of the intimal surface with a paper clip. Rings were mounted in organ baths as described previously (Buikema et al., 2000). Arterial rings were washed thoroughly by replacing Krebs buffer and allowed to equilibrate for a period of 60 min under 1.4 g of resting tension before they were assessed for viability by inducing 2 subsequent constrictions with KCl (60 mM). […] After washout and stabilization, rings were treated for 30 minutes by incubation with vehicle (0.1% DMSO), SUL-121, SUL-150 or SUL-151, followed by subsequent incubation with cumulative doses of phenylephrine.
(§3) To gain insight into receptor specificity of SUL-150, the effects of SUL-150 on histamine and U46619 (a synthetic thromboxane agonist) induced constrictions were investigated (FIG. 2).

α1 adrenoceptor [2] = assay: Phenylephrine-induced constriction of isolated porcine intrarenal arteries (myography)
Protocol: as §1, §2
Dose-dependent constriction responses to phenylephrine (10^−8M-10^−4M) were recorded in said isolated porcine intrarenal arteries. Buffer was warmed to 37° C. and aerated with 95% O2 and 5% CO2 before use.
Vascular constriction responses are expressed as percentage of final response to KCl. Data are expressed as mean±SEM. *p<0.05.
To explore the effects of the enantiomers of (6-hydroxy-2,5,7,8-tetramethylchroman-2-yl)(piperazin-1-yl)methanone (SUL-150 and SUL-151) on constriction of isolated porcine intrarenal arteries, cumulative dose response curves to the α1 adrenoceptor agonist phenylephrine (PE) were constructed in the presence and absence of SUL-150 and SUL-151.

α1 adrenoceptor [3] = assay: Methoxamine-induced constriction of isolated porcine intrarenal arteries
Protocol: as §1, §2
Additionally, the effects of SUL-150 were investigated on stimulation with methoxamine, which is an alternative α1 adrenoceptor agonist.

TP receptors = target: T1, TP receptors (Homo sapiens, UniProt P21731); assay: U46619-induced intracellular calcium transients in HeLa cells; format: cell-based
T1 construct: HeLa cells endogenously expressing histamine and TP receptors; endogenous in cells; host or cells: HeLa
T1 sequence (P21731 1-343): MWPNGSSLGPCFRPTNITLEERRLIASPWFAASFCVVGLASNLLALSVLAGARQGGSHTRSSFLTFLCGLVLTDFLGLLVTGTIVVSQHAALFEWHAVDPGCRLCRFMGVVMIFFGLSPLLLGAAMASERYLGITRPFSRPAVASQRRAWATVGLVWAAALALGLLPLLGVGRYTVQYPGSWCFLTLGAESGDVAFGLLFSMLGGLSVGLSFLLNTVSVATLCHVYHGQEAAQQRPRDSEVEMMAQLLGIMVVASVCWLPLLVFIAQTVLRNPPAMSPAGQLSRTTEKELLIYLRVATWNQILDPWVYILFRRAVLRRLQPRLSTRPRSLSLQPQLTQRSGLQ
Protocol: (§4) HeLa cells endogenously expressing histamine and TP receptors were grown in DMEM-F12 medium enriched with 10% FBS and 1% penicillin-streptomycin. Cells were kept in a tissue culture incubator at 37° C. in […] atmosphere and grown in 75 cm^2 non-treated cell culture flasks. Plating was performed 24 hours before measurement on black transparent-bottom 96-well plates at 20,000 cells per well density.
(§5) To confirm specificity of SUL-150 for the α1 adrenoceptor additionally histamine and U46619 induced calcium transients were studied in HeLa cells endogenously expressing human histamine H1 receptor.

[4] = target: T2, human α1 adrenoceptor subtype D (Homo sapiens, UniProt P25100); assay: Phenylephrine-induced intracellular calcium (FLIPR Calcium 6) in CHO cells, α1D; format: cell-based
T2 construct: expressed in transfected cells; host or cells: CHO-K1
T2 sequence (P25100 1-572): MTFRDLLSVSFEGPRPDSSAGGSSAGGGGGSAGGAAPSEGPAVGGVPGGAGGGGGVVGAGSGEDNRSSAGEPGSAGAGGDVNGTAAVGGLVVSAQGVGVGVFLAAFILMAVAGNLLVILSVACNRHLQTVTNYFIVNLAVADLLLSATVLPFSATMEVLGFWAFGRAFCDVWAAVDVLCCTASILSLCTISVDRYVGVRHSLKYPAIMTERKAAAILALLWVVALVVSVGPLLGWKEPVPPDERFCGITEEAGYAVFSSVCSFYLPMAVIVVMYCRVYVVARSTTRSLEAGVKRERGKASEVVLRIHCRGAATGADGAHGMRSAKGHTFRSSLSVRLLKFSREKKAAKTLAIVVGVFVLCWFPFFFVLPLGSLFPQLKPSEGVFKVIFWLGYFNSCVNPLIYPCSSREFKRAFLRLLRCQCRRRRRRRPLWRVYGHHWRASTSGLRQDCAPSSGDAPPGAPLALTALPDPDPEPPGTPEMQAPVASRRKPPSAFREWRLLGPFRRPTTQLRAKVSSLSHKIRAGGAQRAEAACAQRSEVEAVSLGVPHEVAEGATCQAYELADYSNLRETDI
Protocol: (§6) CHO-K1 cells were stably transfected with a plasmid containing human al-AR subtypes A, B and D in separate cell lines in DMEM-F12 medium with 10% FBS, 1% penicillin-streptomycin and 200 μg/mL Geneticin (G418, Invitrogen, Carlsbad, CA).
(§7) On the next day, CHO cells were treated with either vehicle (0.1% DMSO) or SUL-121 enantiomers for 30 min at 37° C. and stimulated with a 3-fold dilution series of PE (20 μM-100 pM). [Ca^2], was measured using the fluorescent FLIPR Calcium 6 assay kit (Molecular Devices) in immortalized CHO cells stably expressing the α1 adrenoceptor.
(§8) Initially, calcium responses induced by non-cumulative concentration series of phenylephrine were investigated using fluorescent measurements in α1A adrenoceptor-overexpressing CHO cells treated with SUL-150 and SUL-151 (FIG. 4). Fluorescent measurement data was processed and analyzed in SoftMax Pro 7 and expressed as % of baseline AUC with a 3-fold multiplier using an average of first 10 measurement points as baseline.

[5] = target: T3, human α1 adrenoceptor subtype A (Homo sapiens, UniProt P35348); assay: Phenylephrine-induced intracellular calcium (FLIPR Calcium 6) in CHO cells, α1A; format: cell-based
T3 construct: expressed in transfected cells; host or cells: CHO-K1
T3 sequence (P35348 1-466): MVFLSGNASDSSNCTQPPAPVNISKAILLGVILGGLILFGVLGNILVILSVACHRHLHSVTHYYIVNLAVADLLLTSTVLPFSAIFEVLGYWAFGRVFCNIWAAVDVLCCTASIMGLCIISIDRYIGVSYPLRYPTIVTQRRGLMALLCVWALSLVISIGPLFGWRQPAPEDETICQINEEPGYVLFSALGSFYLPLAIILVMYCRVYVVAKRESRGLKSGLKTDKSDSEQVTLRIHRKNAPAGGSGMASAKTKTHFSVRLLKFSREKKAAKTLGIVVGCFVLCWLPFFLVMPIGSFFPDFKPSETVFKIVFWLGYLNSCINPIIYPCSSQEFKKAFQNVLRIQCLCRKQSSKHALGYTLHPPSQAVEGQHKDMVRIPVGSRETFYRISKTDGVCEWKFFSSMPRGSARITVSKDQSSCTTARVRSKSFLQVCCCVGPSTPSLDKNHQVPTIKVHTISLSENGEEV
Protocol: as §6, §7, §8

thromboxane receptors = target: T4, thromboxane receptors (Sus scrofa, UniProt A0A287A102); assay: U46619-induced constriction of isolated porcine intrarenal arteries; conditions: for logEC50 of U46619-induced constriction responses: Porcine renalis
T4 construct: from tissue; host or cells: porcine intrarenal artery rings
T4 sequence (A0A287A102 1-343): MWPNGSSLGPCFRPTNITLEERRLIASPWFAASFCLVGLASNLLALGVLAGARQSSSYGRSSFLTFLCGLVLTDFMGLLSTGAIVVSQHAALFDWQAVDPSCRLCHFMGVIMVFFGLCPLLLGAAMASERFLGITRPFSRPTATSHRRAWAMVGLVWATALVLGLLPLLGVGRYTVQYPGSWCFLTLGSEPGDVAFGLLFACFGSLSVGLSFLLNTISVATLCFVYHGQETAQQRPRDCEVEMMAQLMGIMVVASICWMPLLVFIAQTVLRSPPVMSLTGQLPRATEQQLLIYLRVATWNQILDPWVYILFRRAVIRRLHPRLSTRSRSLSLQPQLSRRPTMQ
Protocol: as §1, §2, §3

[6] = target: T5, human α1 adrenoceptor subtype B (Homo sapiens, UniProt P35368); assay: Phenylephrine-induced intracellular calcium (FLIPR Calcium 6) in CHO cells, α1B; format: cell-based
T5 construct: expressed in transfected cells; host or cells: CHO-K1
T5 sequence (P35368 1-520): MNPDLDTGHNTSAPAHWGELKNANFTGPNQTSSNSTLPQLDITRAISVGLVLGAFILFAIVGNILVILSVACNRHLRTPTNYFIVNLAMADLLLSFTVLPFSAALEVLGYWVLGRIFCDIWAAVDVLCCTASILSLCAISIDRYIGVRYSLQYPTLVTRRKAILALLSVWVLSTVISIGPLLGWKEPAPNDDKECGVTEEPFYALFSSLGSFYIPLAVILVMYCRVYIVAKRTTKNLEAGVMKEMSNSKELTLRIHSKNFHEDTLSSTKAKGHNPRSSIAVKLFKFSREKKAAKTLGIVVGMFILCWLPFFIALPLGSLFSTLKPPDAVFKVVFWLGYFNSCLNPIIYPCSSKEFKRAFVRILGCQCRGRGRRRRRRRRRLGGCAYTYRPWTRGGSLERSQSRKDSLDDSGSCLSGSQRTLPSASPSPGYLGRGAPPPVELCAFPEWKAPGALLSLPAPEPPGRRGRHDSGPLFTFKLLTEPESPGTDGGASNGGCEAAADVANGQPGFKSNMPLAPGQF
Protocol: as §6, §7, §8

α1A adrenoceptor = target: T6, α1A adrenoceptor (Homo sapiens, UniProt P35348); assay: Radiolabeled prazosin displacement binding assay in α1A adrenoceptor transgenic CHO cells; conditions: [7-Methoxy-3H]-prazosin
T6 construct: expressed in transfected cells; host or cells: CHO-K1
T6 sequence (P35348 1-466): T3 sequence (P35348 1-466)
Source text: We therefore explored whether SUL-150 could directly interact with the α1 adrenoceptor as a receptor antagonist.

[7] = target: T7, human histamine H1 receptor (Homo sapiens, UniProt P35367); assay: Histamine-induced intracellular calcium transients in HeLa cells; format: cell-based
T7 construct: HeLa cells endogenously expressing human histamine H1 receptor; endogenous in cells; host or cells: HeLa
T7 sequence (P35367 whole entry): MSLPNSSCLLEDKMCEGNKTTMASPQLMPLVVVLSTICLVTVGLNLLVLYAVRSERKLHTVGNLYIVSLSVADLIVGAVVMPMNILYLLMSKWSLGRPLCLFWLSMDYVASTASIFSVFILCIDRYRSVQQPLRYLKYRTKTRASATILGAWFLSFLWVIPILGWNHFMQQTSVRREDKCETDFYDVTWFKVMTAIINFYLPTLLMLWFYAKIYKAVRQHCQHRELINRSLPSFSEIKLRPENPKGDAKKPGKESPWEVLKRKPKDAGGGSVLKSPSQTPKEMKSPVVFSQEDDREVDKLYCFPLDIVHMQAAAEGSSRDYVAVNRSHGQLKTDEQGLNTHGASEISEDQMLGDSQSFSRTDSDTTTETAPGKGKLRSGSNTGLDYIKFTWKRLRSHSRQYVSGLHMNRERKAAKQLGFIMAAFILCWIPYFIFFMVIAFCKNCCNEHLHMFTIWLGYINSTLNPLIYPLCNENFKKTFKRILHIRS
Protocol: as §4, §5

[8] = 10 μM SUL-150, calcium transients
[9] = 30 μM SUL-150, calcium transients
[10] = 100 μM SUL-150, calcium transients

logEC50 of U46619-induced response, HeLa cells (TP receptors; [8]): −6.83 ± 0.10
logEC50 of U46619-induced response, HeLa cells (TP receptors; [9]): −6.78 ± 0.18
logEC50 of U46619-induced response, HeLa cells (TP receptors; [10]): −6.75 ± 0.10
effect on U46619 induced calcium transients (TP receptors; in words): did not significantly affect
logEC50 of phenylephrine-induced calcium influx, α1D ([4]; 10 μM test compound): −7.37 ± 0.10
logEC50 of phenylephrine-induced calcium influx, α1D ([4]; 30 μM test compound): −7.04 ± 0.06
logEC50 of phenylephrine-induced calcium influx, α1D ([4]; 100 μM test compound): −6.80 ± 0.10
effect on PE-induced calcium transients, α1 adrenoceptor subtype D ([4]; in words): shifted dose response curves rightwards
logEC50 of phenylephrine-induced calcium influx, α1A ([5]; 10 μM test compound): −7.62 ± 0.03
logEC50 of phenylephrine-induced calcium influx, α1A ([5]; 30 μM test compound): −7.28 ± 0.03
logEC50 of phenylephrine-induced calcium influx, α1A ([5]; 100 μM test compound): −6.88 ± 0.03
effect on PE-induced calcium transients, α1 adrenoceptor subtype A ([5]; in words): shifted dose response curves rightwards
logEC50 of U46619-induced constriction responses (thromboxane receptors; 30 μM SUL-150): −7.58 ± 0.06
logEC50 of U46619-induced constriction responses (thromboxane receptors; 100 μM SUL-150): −7.50 ± 0.04
shift in EC50 of U46619-induced constrictions (thromboxane receptors; 100 μM SUL-150, in words): small effect size
logEC50 of phenylephrine-induced calcium influx, α1B ([6]; 10 μM test compound): −7.51 ± 0.08
logEC50 of phenylephrine-induced calcium influx, α1B ([6]; 30 μM test compound): −7.24 ± 0.07
logEC50 of phenylephrine-induced calcium influx, α1B ([6]; 100 μM test compound): −6.72 ± 0.08
effect on PE-induced calcium transients, α1 adrenoceptor subtype B ([6]; in words): shifted dose response curves rightwards
potency in displacing the radioligand compared to SUL-151 (α1A adrenoceptor): more potent
logEC50 of histamine-induced response, HeLa cells [7, 8]: −6.45 ± 0.05
logEC50 of histamine-induced response, HeLa cells [7, 9]: −6.39 ± 0.05
logEC50 of histamine-induced response, HeLa cells [7, 10]: −6.29 ± 0.06
effect on histamine induced calcium transients ([7]; in words): did not significantly affect
Compound: Cc1c(C)c2c(c(C)c1O)CC[C@](C)(C(=O)N1CCNCC1)O2 [SUL-150, (R)(6-hydroxy-2,5,7,8-tetramethylchroman-2-yl)(piperazin-1-yl)methanone]
effect on PE-mediated constriction on top of AG1478 (EGFR transactivation): additional inhibitory effect
logEC50 of histamine-induced constriction responses ([1]; 30 μM SUL-150): −4.86 ± 0.08
effect on constriction responses to histamine ([1]; 30 μM and 100 μM, in words): did not affect
logEC50 of histamine-induced constriction responses ([1]; 100 μM SUL-150): −4.85 ± 0.10
logEC50 of phenylephrine-induced constriction responses (α1 adrenoceptor [2]; 10 μM test compound): −5.11 ± 0.09*
logEC50 of phenylephrine-induced constriction responses (α1 adrenoceptor [2]; 30 μM test compound): −5.06 ± 0.06*
logEC50 of phenylephrine-induced constriction responses (α1 adrenoceptor [2]; 100 μM test compound): −4.44 ± 0.09*
effect on dose response curves to methoxamine (α1 adrenoceptor [3]; SUL-150 pre-treatment (30 μM and 100 μM), intact endothelium): shifted rightward
effect on methoxamine induced constriction after removal of the endothelium (α1 adrenoceptor [3]; endothelium-denuded rings): did not abrogate the effects of SUL-150
